Results as given in patent EP1745783A1, “Substituted pyrazoline compounds, their preparation and use as medicaments” (Laboratorios del Dr. Esteve S.A., priority 2005, dated 2007).

How the values were obtained:
[1] = tested on: cannabinoid receptors; assay: Mouse tetrad model, agonistic effect; format: in vivo, Male NMRI mice; conditions: 5 mg/kg i.v., mice
From the text: (§1) Substances with affinity for cannabinoid receptors are known to produce a wide range of pharmacological effects. It is also known that intravenous administration of a substance with affinity for cannabinoid receptors in mice produces analgesia , hypothermia, sedation and catalepsy. Individually, none of these effects can be considered as proof that a tested substance has affinity for cannabinoid-receptors, since all of these effects are common for various classes of centrally active agents. However, substances, which show all of these effects, i.e. substances that are active in this so-called tetrad model are considered to have affinity for the cannabinoid receptors. It has further been shown that cannabinoid receptor antagonists are higly effective in blocking the effects of a cannabinoid agonist in the mouse tetrad model.
(§2) The tetrad model is described, for example, in the publication of A. C. Howlett et al, International Union of Pharmacology XXVII. Classification of Cannabinoid Receptors, Pharmacol Rev 54, 161-202 , 2002 and David R. Compton et al., "In-vivo Characterization of a Specific Cannabinoid Receptor Antagonist (SR141716A) :Inhibition of Tetrahydrocannbinol- induced Responses and Apparent Agonist Activity", J. Pharmacol. Exp. Ther. 277 , 2, 586-594, 1996. The corresponding parts of the description are hereby incorporated by reference. […]
(§3) Before testing in the behavioral procedures given below, mice are acclimatized to the experimental setting. Pre-Treatment control values are determined for analgesia hot plate latency (in seconds), rectal temperature, sedation and catalepsy.
In order to determine the agonistic activty of the substance to be tested, the mice are injected intravenously with the substance to be tested or the vehicle alone. 15 minutes after injection, latency in hot plate analgesia is measured. Rectal temperature, sedation and catalepsy are measured 20 minutes after injection.
(§4) The hot plate analgesia is determined according to the method described in Woolfe D. et al. "The evaluation of analgesic action of pethidine hydrochloride (Demerol)", J. Pharmacol. Exp. Ther. 80, 300-307,1944. […]
(§5) The mice are placed on a hot plate (Harvard Analgesimeter) at 55 ± 0.5 °C until they show a painful sensation by licking their paws or jumping and the time for these sensations to occur is recorded. This reading is considered the basal value (B). […]
(§6) Fifteen minuts after the administration of the substance to be tested, the mice are again placed on the hot plate and the afore described procedure is repeated. This period is called the post-treatment reading (PT).
(§7) The degree of analgesia is calculated from the formula : %MPE of Analgesia = (PT-B)/(PC-B) × 100 [formula] […]

[2] = tested on: cannabinoid receptors; assay: Mouse tetrad model, antagonistic effect against Win 55212-2; format: in vivo, Male NMRI mice; conditions: 5 mg/kg i.v. prior to Win 55212-2 in a dose of 1,25mg/kg i.v., mice
From the text: as §1, §2, §3
In order to determine the antagonistic activity the identical procedure is used as for the determination of the agonistic effects, but with the difference that the substance to be evaluated for its antagonistic activity is injectected 5 minutes before the intravenous injection of 1.25 mg/kg Win-55,212 a known cannabinoid-receptor agonist.
as §4, §5, §6, §7

Compound: O=C(NN1CCCCC1)C1=NN(c2ccc(Cl)cc2Cl)C(c2ccc(Cl)cc2)C1 (centres unmarked) [Example 1, N-piperidinyl-5-(4-chlorophenyl)-1-(2,4-dichlorophenyl)-4,5-dihydro-1H-pyrazole-3-carboxamide]
- Agonistic effect A: Hot-Plate test [1]: 0
- Agonistic effect B: Hypothermia [1]: 0
- Agonistic effect C: Catalepsy [1]: 0
- Agonistic effect D: Sedation [1]: 0
- Antagonistic Effect A: Hot-Plate test [2]: 74
- Antagonistic Effect B: Hypothermia [2]: 100
- Antagonistic Effect C: Catalepsy [2]: 100
- Antagonistic Effect D: Sedation [2]: 100
